Values of other authors, collected in patent US11883460B2, “Antibiotic compositions for treating bacterial infections” (AGENCY FOR SCIENCE, TECHNOLOGY AND RESEARCH, priority 2014, dated 2024).

Conditions: compared with colistimethate sodium

## Colistin sulfate
  Stability in human plasma: more stable than colistimethate sodium
